Data reported in patent US20260098008A1, “COVALENT, CHEMOGENETIC ACTIVATORS FOR K2P POTASSIUM CHANNELS AND USES THEREOF” (THE REGENTS OF THE UNIVERSITY OF CALIFORNIA, priority 2022, published 2026).
Where a chain is given by its changes, count along the chain named.

Legend:
A286F TREK-1^CG* = molecular target: T1, A286F TREK-1^CG* (Mus musculus, UniProt P97438, A301F/S146C); assay: Resting membrane potential, current-clamp (I=0) in HEK293 cells; type: cell-based; settings: 20 μM CAT335
T1 construct: expressed in transfected cells; host or cells: Xenopus laevis oocytes injected with mRNA
T1 sequence (P97438 1-411 isoform P97438-2 S131C/A286F): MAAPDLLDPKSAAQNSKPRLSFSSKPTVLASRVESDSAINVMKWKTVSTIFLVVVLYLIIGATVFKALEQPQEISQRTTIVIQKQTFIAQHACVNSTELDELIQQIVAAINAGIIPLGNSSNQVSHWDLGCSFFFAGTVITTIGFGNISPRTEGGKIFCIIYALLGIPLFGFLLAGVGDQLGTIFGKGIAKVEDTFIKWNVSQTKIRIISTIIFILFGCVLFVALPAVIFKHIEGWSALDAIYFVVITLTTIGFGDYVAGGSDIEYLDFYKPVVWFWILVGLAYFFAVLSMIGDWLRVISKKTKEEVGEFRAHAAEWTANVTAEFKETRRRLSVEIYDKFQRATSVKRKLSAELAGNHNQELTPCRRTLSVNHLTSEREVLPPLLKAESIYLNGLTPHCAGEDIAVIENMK
Source text: (§1) Mouse K2P2.1 (TREK-1) (Genbank accession number: NP_034737.2), mouse K2P10.1 (TREK-2) (NM_001316665.1), mouse K2P4.1 (TRAAK) (NM_008431.3), human K2P4.1 (TRAAK) (NM_033310.2) and mouse K2P18.1(TRESK) (NM_207261.3) were used for this study. Point mutations were introduced by site-directed mutagenesis using custom primers and confirmed by sequencing before use. For studies using Xenopus oocytes, K2P channels were subcloned into a previously reported pGEMHE/pMO vector (46). For expression in HEK293 cells, mouse K2P2.1 (TREK-1) and mutants were expressed from a previously described pIRES2-EGFP vector in HEK293 cells (46,47). K2P2.1 (TREK-1) tandems were constructed by connecting the open reading frames for the individual subunits with a linker encoding the […] (SEQ ID NO: 19) sequence. Tandems used for HEK293 cells included an N-terminal HA tag ([…] (SEQ ID NO: 20)) on the first subunit.
(§2) 50% confluent cells were co-transfected (in 35-mm diameter wells) with 10-100 ng of the K2P2.1 plasmid and 400 ng of an eGFP plasmid (for visualization) using LipofectAMINE 2000 (Invitrogen) for 24 h, after which the cells were either plated onto coverslips or the media exchanged with fresh media. […]
(§3) Whole-cell patch-clamp experiments with K2P2.1(TREK-1) and mutants were carried out 24-48 h after transfection. […] Data were analyzed using Clampfit 11 and GraphPad Prism 9.

TREK-1^CG* = molecular target: T2, TREK-1^CG* (Mus musculus, UniProt P97438, S146C); assay: as above; type: cell-based; settings: 20 μM CAT335
T2 construct: expressed in transfected cells; host or cells: HEK293 (pIRES2-EGFP vector)
T2 sequence (P97438 1-411 isoform P97438-2 S131C): T1 sequence (P97438 1-411 isoform P97438-2 S131C/A286F) with F286A
Source text: as §1, §2, §3

[1] = Solubility in aqueous solutions (crystallization sample preparation); type: physicochemical
Protocol: K2P2.1cryst ML335 and ML402 complex crystals grew in the same conditions as K2P2.1cyst, but the protein was incubated for at least 1 h with 2.5 mM of activator before setting the crystal plates. […] Then each compound was diluted 1:100 in SEC buffer to 5 mM concentration, giving a milky solution. This solution was mixed 1:1 to K2P2.1cryst previously concentrated to 12 mg ml^−1. […] The samples were briefly centrifuged in a table-top centrifuge (10,000 g) to remove any insoluble material before setting the crystal plates.

K2P4.1 (TRAAK) = molecular target: T3, K2P4.1 (TRAAK) (Homo sapiens, UniProt Q9NYG8); settings: previous studies; cited from earlier work
T3 sequence (Q9NYG8 1-393): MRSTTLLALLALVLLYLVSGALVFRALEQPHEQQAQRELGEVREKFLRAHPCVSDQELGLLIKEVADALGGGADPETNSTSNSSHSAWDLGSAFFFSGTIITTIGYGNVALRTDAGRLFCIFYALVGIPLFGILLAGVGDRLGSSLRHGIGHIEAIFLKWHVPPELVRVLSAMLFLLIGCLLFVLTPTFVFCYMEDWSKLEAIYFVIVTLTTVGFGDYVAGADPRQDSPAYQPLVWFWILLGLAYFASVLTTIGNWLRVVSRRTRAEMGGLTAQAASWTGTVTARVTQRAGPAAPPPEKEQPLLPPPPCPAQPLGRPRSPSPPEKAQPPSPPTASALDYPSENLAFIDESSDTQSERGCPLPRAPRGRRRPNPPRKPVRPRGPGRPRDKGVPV

Structure (SMILES) | Change of resting membrane potential (ΔRMP) (A286F TREK-1^CG*) [mV] | Change of resting membrane potential (ΔRMP) (TREK-1^CG*) [mV] | Solubility in aqueous solutions [1] | Sensitivity of channel to activator (K2P4.1 (TRAAK))
O=C(NCc1ccc(Cl)cc1Cl)c1ccc(N2C(=O)C=CC2=O)cc1 [CAT335] | −27 | −6 | – | –
CS(=O)(=O)Nc1ccc(C(=O)NCc2ccc(Cl)cc2Cl)cc1 [ML335, reference compound] | – | – | insoluble in aqueous solutions | insensitive
